Consider eight compounds from patent US11040949B2, “Compounds affecting pigment production and methods for treatment of bacterial diseases” (Versitech Limited, priority 2017, dated 2021).

≈ marks a conversion by molar mass, not a printed value.

For series [1], the system named is methicillin-resistant S. aureus (MRSA). As to the kind of experiment: MRSA skin infection, wound closure. Format: in vivo, mice. The note with it: Day 7. Here is the method: FIG. 11B are photos from the top view of mice with skin infection caused by MRSA before (at Day 0) and after different treatments (at Day 7): top left received 2% mupirocin via topical BID for 7 days; top right received 100 mg/kg linezolid via oral BID for 7 days; bottom received 30 mg/kg IM032 via oral BID for 7 days.
Visual wound healing/closure in different treatment groups of mice can be observed in FIG. 11B.

A further series relates to S. aureus USA300. As to the kind of experiment: In vitro staphyloxanthin production inhibition by NP-16 analogues. The format is cell-based, Staphylococcus aureus. The note with it: S. aureus USA300, methanol extract OD 450 nm, 300 nM to 700 nM. Here is the method:
Evaluation of NP-16 analogues in Staphyloxanthin production
The in vitro pigment inhibition studies were performed by S. aureus USA300 cultured in BHI with or without the presence of inhibitor compounds at 37° C. and 250 rpm for 36-48 hours. The bacteria were washed twice with PBS prior to the staphyloxanthin purification with methanol. The OD of the extracts were monitor at 450 nm using DTX880 multi-plate reader spectrophotometer (Beckman). The concentration range tested for the compounds were between 300 nM to 700 nM, and control groups were added with equal volume of DMSO.
The cytotoxicity of NP-16 and some of its analogues was tested against Raw 264.7 cells, and the cell tolerance of each compounds were documented in Table 3. Along with the in vitro staphyloxanthin production of the NP-16 analogues were being tested, the compounds can exert staphyloxanthin production inhibition. The staphyloxanthin from the overnight-cultured bacteria were extracted with methanol and quantified in via spectrophotometry. The results were presented in relative ratio to NP-16 in both the inhibition ratio as well as the TC50 (concentration for decreasing cell viability by 50%) in Table 3 (sample names correspond to those listed in Table 1).

Series [2] is described as follows: Solubility in simulated gastric and intestinal fluids. Format: physicochemical. The source says:
The following table (Table 4) illustrates the solubility of two different compounds, NP16-XL-016 (hereinafter as “IM032”) and NP16-XL-061 (hereinafter as “IM032-C”), in two solutions with different pH values simulating the pH of gastric juice and human intestinal fluid using HCl and phosphate buffer respectively.

The nature of series [3]: Solubility in commonly used solvents for oral administration. Format: physicochemical.

In the case of `CC(=O)NC[C@H]1CN(c2ccc(N3CCOCC3)c(F)c2)C(=O)O1` [Linezolid, linezolid, reference compound], in series [1] (100 mg/kg oral twice a day), the “percentage of wound closure” value is listed as 48.4%.
`C/C(=C\C(=O)OCCCCCCCCC(=O)O)C[C@@H]1OC[C@H](C[C@@H]2O[C@H]2[C@@H](C)[C@H](C)O)[C@@H](O)[C@H]1O` [Mupirocin, mupirocin, reference compound]: the “percentage of wound closure” value in series [1] (2% topical twice a day) came out at 43.2%.
As for `CN1CCN(S(=O)(=O)c2ccc(NC(=O)/C=C/c3ccccc3C#N)cc2)CC1` [NP16-XL-055, 3-(6-cyanophenyl)-N-[4-(4-methyl-1,4-piperazine-1-sulfonyl)phenyl]-acrylamide], the “Relative ratio to NP16 based on inhibition ratio” value in the series on S. aureus USA300 turned out to be 3.19.
Still for that read-out and setting: as for `O=C(Nc1ccc(S(=O)(=O)N2CCCCC2)cc1)c1ncoc1-c1ccccc1` [NP16-XL-057, 4-(5-phenyl-1,3-oxazole)-N-[4-(1-piperidine-1-sulfonyl)phenyl]-amide], the figure is 0.14.
`O=C(/C=C/c1c(Br)cccc1Br)Nc1ccc(S(=O)(=O)N2CCCCC2)cc1` [NP16-XL-058, 3-(2,6-dibromo-phenyl)-N-[4-(1-piperidine-1-sulfonyl)phenyl]-acrylamide]: the “Relative ratio to NP16 based on inhibition ratio” value in the series with S. aureus USA300 is on record as 0.16.
The same measure, in the same setting: as for `N#Cc1ccc(-c2cc(C(=O)Nc3ccc(S(=O)(=O)N4CCCCC4)cc3)no2)cc1` [NP16-XL-059, 4-[2-(4-cyano-phenyl)-1,5-oxazole]-N-[4-(1-piperidine-1-sulfonyl)phenyl]-amide], the figure is 0.06.
For the compound `O=C(Nc1ccc(S(=O)(=O)N2CCCCC2)cc1)c1cc(-c2cccs2)on1` [NP16-XL-060, 4-[2-(thiophen-5-yl)-1,5-oxazole]-N-[4-(1-piperidine-1-sulfonyl)phenyl]-amide], the “Relative ratio to NP16 based on inhibition ratio” value in the series on S. aureus USA300 is on record as 0.06.
Regarding `O=C(/C=C/c1ccccc1Cl)Nc1ccc(S(=O)(=O)N2CCCCC2)cc1` [NP16-XL-061, 3-(6-chlorophenyl)-N-[4-(1-piperidine-1-sulfonyl)phenyl]-acrylamide], the “Solubility in pH 2 (0.1N HCl + 0.1% Tween 80)-simulating human stomach” value in series [2] (pH 2) is on record as “<LOQ”. The solubility in series [2] (pH 7.4, aqueous with cosolvent or surfactant or cyclodextrin, read-out: Solubility in pH 7.4 (KH2PO4 + 0.1% Tween 80)-simulating human intestine) is 0.0856 µg/mL; in series [3] (1:1 Labrasol ALF/PEG300, organic solvent or mixture) it was 6340 µg/mL (≈ 15.7 mM); in series [3] (1:1 Labrasol ALF/PEG400, organic solvent or mixture), 7600 µg/mL (≈ 18.8 mM); in series [3] (Labrasol ALF, oil or lipid) it was 6080 µg/mL (≈ 15 mM); in series [3] (PEG300, organic solvent or mixture), 7150 µg/mL (≈ 17.7 mM); in series [3] (PEG400, organic solvent or mixture), 6940 µg/mL (≈ 17.1 mM).
